Laboratory results taken from publication PMC3973694, “Identification of Odorant-Receptor Interactions by Global Mapping of the Human Odorome” (PLoS ONE, 2014).
Values joined by “and” are separate entries in the source; they are usually repeats but may differ in a detail not shown here. Equal values may be shown once. Where a name gives a salt, the structure may show the parent alone. Read-outs that look alike come from different tables or passages of the source.

Assays:
OR5P3 = molecular target: T1, OR5P3 (Homo sapiens, UniProt Q8WZ94); assay: GloSensor cAMP assay, OR5P3-transfected Hana3A cells; type: cell-based; details: activation of OR5P3, Hana3A cells, mean ± s.e.m., at least three experiments
T1 construct: host or cells: Hana3A cells (HEK293T-derived), co-transfected with pCI-RTP1S and pGlo-22F
T1 sequence (Q8WZ94 1-311): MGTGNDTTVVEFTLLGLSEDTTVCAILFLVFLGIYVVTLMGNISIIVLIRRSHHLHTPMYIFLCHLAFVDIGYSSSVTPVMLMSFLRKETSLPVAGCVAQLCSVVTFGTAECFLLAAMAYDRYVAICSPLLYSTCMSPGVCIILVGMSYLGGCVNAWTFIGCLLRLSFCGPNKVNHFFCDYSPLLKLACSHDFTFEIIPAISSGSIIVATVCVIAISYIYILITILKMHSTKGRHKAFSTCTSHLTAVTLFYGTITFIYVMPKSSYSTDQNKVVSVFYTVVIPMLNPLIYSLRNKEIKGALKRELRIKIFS
From the text: (§1) To validate predicted interactions between odorant compounds and ORs or the CB1 receptor, we used the GloSensor cAMP assay from Promega and measured the EC50 values of compounds. This luminescent assay is a sensitive method for measuring Gs and Gi- protein coupled receptor activation by real-time detection of intracellular second messenger cAMP [44]. The protocol is described in the GloSensor cAMP assays paragraph in the Supplementary Methods (S_file).
(§2) All odorants used in these assays were purchased from Sigma-Aldrich (Saint-Quentin Fallavier, France) except celery ketone, which was kindly provided by B. Schilling (Givaudan Schweiz AG, Dübendorf, Switzerland). The stock solutions of odorants (100 mM) were prepared in dimethylsulfoxide (DMSO) and were stored at -20°C. Immediately prior to the assays, the stock solutions of odorants were diluted in the CO2-independent medium (Gibco®, Life Technologies) to the appropriate concentrations. The final concentration of DMSO in wells never exceeded 1% (v/v); this concentration had no effect on GloSensor cAMP assays.
(§3) To validate predicted odorant compound-OR interactions, we used the GloSensor™ cAMP assay (Promega, Charbonnières-Les-Bains, France) to measure EC50 values of compounds. The functional assay was performed in Hana3A cells, a HEK293T-derived cell line optimized for OR expression. Hana3A cells were grown in Minimal Essential Medium (MEM; Life Technologies, Villebon-sur-Yvette, France) supplemented with 10% fetal bovine serum (PAA Laboratories, Les Mureaux, France), 100 μM Eagle’s non-essential amino acids, 2 mM glutamax (Life Technologies) and 1 μg/ml puromycin (Sigma-Aldrich, Saint-Quentin Fallavier, France). The cells were cultured at 37°C in a humidified atmosphere containing 7.3% CO2. Forty-eight hours before performing the GloSensor™ cAMP assay, cells were plated on poly-D-lysine coated 96-well plates (BD Biosciences, Le Pont de Claix, France) at a density of 3x10^4 cells per well. […] Luminescence was measured with a Victor 3V plate reader (Perkin Elmer, Courtaboeuf, France) after addition of odorant solutions (10 μl). […]

Hana3A cells = assay: Cytotoxic effects seen in the OR GloSensor assay; type: cell-based; details: no saturation of the response could be observed
Description: as §3, with “well. Twenty-four hours later, cells were transiently transfected with the OR expression plasmid (50 ng per well) together with the pCI-RTP1S plasmid and the pGlo™-22F cAMP plasmid (Promega) (10 ng and 100 ng per well, respectively) using Fugene®HD (Promega) according to the manufacturer instructions.” for “well.”

[1] = molecular target: human cannabinoid receptor CB1 (Homo sapiens, UniProt P21554); assay: GloSensor cAMP assay, CB1-transfected HEK293 cells; type: cell-based; details: for EC50: increase in cAMP production, forskolin-stimulated control cells, mean ± s.e.m., three experiments
Sequence of human cannabinoid receptor CB1 (P21554 whole entry): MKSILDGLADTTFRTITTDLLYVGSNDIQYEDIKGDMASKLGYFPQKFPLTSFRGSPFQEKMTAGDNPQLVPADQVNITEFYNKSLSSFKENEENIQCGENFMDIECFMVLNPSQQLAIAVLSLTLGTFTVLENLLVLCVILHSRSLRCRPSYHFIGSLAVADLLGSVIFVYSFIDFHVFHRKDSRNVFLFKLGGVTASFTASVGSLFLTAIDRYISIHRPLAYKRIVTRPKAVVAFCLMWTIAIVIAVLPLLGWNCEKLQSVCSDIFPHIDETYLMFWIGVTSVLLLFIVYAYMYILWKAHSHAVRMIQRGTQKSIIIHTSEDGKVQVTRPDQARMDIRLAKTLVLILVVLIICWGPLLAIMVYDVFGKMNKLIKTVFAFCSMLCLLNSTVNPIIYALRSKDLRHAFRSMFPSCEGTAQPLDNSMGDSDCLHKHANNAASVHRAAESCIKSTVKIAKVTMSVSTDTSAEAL

OR2W1 = molecular target: T2, OR2W1 (Homo sapiens, UniProt Q9Y3N9); assay: GloSensor cAMP assay, OR2W1-transfected Hana3A cells; type: cell-based; details: activation of OR2W1, Hana3A cells, mean ± s.e.m., at least three experiments
T2 construct: host or cells: Hana3A cells (HEK293T-derived), co-transfected with pCI-RTP1S and pGlo-22F
T2 sequence (Q9Y3N9 1-320): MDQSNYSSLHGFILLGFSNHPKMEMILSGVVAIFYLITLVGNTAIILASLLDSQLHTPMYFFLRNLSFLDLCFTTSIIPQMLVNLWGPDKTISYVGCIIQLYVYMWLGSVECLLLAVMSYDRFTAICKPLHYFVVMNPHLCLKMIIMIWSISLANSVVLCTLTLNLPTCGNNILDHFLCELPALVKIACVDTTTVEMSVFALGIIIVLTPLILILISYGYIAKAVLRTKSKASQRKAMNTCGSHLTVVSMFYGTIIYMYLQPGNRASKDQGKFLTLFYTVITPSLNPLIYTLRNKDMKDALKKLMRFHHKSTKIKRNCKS
From the text: as §1, §2, §3

OR51E1 = molecular target: T3, OR51E1 (Homo sapiens, UniProt Q8TCB6); assay: GloSensor cAMP assay, OR51E1-transfected Hana3A cells; type: cell-based
T3 construct: host or cells: Hana3A cells (HEK293T-derived), co-transfected with pCI-RTP1S and pGlo-22F
T3 sequence (Q8TCB6 1-318): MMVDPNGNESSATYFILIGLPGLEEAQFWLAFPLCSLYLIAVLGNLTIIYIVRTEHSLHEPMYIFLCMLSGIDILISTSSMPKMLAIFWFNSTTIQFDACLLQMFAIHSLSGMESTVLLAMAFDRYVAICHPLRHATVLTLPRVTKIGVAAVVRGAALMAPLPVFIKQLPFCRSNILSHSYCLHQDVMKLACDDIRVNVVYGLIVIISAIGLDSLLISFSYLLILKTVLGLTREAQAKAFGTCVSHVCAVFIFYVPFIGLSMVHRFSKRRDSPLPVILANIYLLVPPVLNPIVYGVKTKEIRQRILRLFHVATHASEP
From the text: as §1, §2
as §3, with “well. Twenty-four hours later, cells were transiently transfected with the OR expression plasmid (50 ng per well) together with the pCI-RTP1S plasmid and the pGlo™-22F cAMP plasmid (Promega) (10 ng and 100 ng per well, respectively) using Fugene®HD (Promega) according to the manufacturer instructions. In addition, to check that induced activities are OR-dependent, mock transfections were performed by transfecting the cells with the pCI plasmid in place of the OR expression plasmid.” for “well.”

[2] = molecular target: T4, human PPARγ ligand binding domain (Homo sapiens, UniProt P37231); assay: Competitive PPARγ binding assay (LanthaScreen TR-FRET); details: IC50 (inhibition of binding), displacement of fluorescent pan PPAR agonist tracer
T4 sequence (P37231 238-503 limits assumed): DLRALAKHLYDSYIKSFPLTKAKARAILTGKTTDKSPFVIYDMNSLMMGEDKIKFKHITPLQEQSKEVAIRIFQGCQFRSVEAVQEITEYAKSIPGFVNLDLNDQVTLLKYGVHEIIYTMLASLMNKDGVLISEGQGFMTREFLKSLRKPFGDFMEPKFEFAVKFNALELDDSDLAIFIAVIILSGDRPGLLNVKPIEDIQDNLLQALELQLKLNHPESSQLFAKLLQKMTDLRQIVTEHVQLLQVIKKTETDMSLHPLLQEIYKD
Description: To validate predictions of odorant-PPARγ interactions, IC50 values for respective compounds were determined by competitive binding using time-resolved fluorescence resonance energy transfer (LanthaScreen, Invitrogen) on a Wallac EnVision (PerkinElmer).
To validate predictions of odorant-PPARγ interactions, IC50 values for respective compounds were determined by competitive binding using time-resolved fluorescence resonance energy transfer (LanthaScreen, Invitrogen) on a Wallac EnVision (PerkinElmer). A terbium labeled anti-GST antibody was used to label purified GST-tagged human PPARγ ligand binding domain. Energy transfer from terbium to the tracer, a fluorescent pan PPAR agonist, enabled read-out of each test compound’s ability to displace the tracer. […] An unrestrained sigmoidal (one-binding site) dose-response curve was fitted to each data set by linear regression allowing for determination of IC50 values.

[3] = absence or presence of pertussis toxin
[4] = activation of OR51E1, Hana3A cells, mean ± s.e.m., at least three experiments, read-out: EC50

C=C(C)C1CC=C(C)C(=O)C1 (single isomer, unassigned; (-)) [(-)-carvone, reference compound] was tested, and the EC50 (OR5P3) was 388 µM.
CCCCCCCCO [1-octanol] was tested, and the EC50 (OR5P3) was 115 µM and the “concentrations with cytotoxic effects” value (Hana3A cells) was “higher than 10^−3 M”.
With CCCCCCCC(C)=O [2-Nonanone] the “mode of action at CB1” value [1, 3] was “inverse agonists” and the EC50 [1] was 363 ± 80.7 µM.
In the case of CCCCCC(=O)OCCc1ccccc1 [2-Phenylethyl hexanoate], the “mode of action at CB1” value [1, 3] is reported as “inverse agonists” and the EC50 [1] is reported as 509 ± 8.3 µM.
In the case of CC(=O)OCc1ccccc1 [Benzyl acetate, reference compound], the EC50 (OR2W1) is reported as 34.3 ± 1.17 µM.
Work on CC(C)=CCC/C(C)=C/C=O [Citral] yielded an EC50 (OR2W1) of 129 µM.
CC(C)=CCCC(C)CC=O (stereo not drawn) [Citronellal] was tested, and the EC50 (OR2W1) was 208 µM.
For CCCCCCC(C)(C)c1cc(O)c2c(c1)OC(C)(C)[C@@H]1CC=C(CO)C[C@@H]21 [HU210, (6aR)-trans-3-(1,1-dimethylheptyl)-6a,7,10,10a,-tetrahydro-1-hydroxy-6,6-dimethyl-6H-dibenzo[b,d]pyran-9-methanol, reference compound], the “mode of action at CB1” value [1] was “agonists”.
For CC(C)CC(=O)O [Isovaleric acid], the EC50 (OR51E1; [4]) was 153 µM.
CCCCCCCCC(=O)O [Nonanoic acid, reference compound] gave an EC50 (OR51E1) of 197 µM.
CCC(=O)O [Propionic acid] was tested, and the fold lower activity (OR51E1; OR51E1, compared with isovaleric acid and nonanoic acid) was 5 fold and the EC50 (OR51E1; [4]) was 923 µM.
For CCCCOC(=O)CC(CC(=O)OCCCC)(OC(C)=O)C(=O)OCCCC [Tributyl acetyl citrate], the “mode of action at CB1” value [1, 3] was “inverse agonists” and the EC50 [1] was 122 ± 25.2 µM.
For CCCC1CC(=O)C=C(C)C1 (stereo not drawn) [celery ketone], the EC50 (OR5P3) was 483 µM and the “concentrations with cytotoxic effects” value (Hana3A cells) was “higher than 10^−3 M”.
In the case of O=C1C[C@@H](c2ccc(O)cc2)Oc2cc(O)cc(O)c21 [naringenin], the IC50 [2] is reported as 7.4 µM.
In the case of O=C(OCCc1ccccc1)c1ccccc1O [phenylethyl salicylate], the IC50 [2] is reported as 9.2 µM and 14.7 µM.
